According to ChEMBL document CHEMBL2034964, “Investigation of the binding pocket of human hematopoietic prostaglandin (PG) D2 synthase (hH-PGDS): a tale of two waters” (Bioorg Med Chem Lett, 2012):

How the values were obtained:
[1] = target: T1, Hematopoietic prostaglandin D synthase (Homo sapiens, UniProt O60760); test: Inhibition of human recombinant HPGDS using PGH2 as substrate assessed as production of PGD2 preincubated for 10 mins prior substrate addition measured after 42 secs by TBA-based fluorescence assay
[2] = (§1) Metabolic stability in human liver microsomes assessed as compound remaining after 30 mins; format: ADME, Microsome; conditions: liver microsomes, read-out: Stability
[3] = target: T1, Hematopoietic prostaglandin D synthase; test: Inhibition of HPGDS
[4] = tested on: Liver microsomes; test: Half life in human liver microsomes; format: ADME, Microsome
[5] = target: ERG (KCNH2 potassium channel) (Homo sapiens, UniProt Q12809); test: Displacement of dofetilide from ERG at 10 uM; conditions: probe dofetilide
[6] = tested on: Liver microsomes; test: as §1; format: ADME, Microsome; conditions: microsomes, 0.5 h

T1 sequence (O60760 whole entry): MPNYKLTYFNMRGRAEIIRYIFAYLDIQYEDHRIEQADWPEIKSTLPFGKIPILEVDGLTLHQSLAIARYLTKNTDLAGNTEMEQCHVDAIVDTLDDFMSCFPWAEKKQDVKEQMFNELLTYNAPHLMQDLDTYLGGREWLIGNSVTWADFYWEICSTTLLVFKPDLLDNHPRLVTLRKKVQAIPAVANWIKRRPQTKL
Chain of ERG (KCNH2 potassium channel) (Q12809 whole entry): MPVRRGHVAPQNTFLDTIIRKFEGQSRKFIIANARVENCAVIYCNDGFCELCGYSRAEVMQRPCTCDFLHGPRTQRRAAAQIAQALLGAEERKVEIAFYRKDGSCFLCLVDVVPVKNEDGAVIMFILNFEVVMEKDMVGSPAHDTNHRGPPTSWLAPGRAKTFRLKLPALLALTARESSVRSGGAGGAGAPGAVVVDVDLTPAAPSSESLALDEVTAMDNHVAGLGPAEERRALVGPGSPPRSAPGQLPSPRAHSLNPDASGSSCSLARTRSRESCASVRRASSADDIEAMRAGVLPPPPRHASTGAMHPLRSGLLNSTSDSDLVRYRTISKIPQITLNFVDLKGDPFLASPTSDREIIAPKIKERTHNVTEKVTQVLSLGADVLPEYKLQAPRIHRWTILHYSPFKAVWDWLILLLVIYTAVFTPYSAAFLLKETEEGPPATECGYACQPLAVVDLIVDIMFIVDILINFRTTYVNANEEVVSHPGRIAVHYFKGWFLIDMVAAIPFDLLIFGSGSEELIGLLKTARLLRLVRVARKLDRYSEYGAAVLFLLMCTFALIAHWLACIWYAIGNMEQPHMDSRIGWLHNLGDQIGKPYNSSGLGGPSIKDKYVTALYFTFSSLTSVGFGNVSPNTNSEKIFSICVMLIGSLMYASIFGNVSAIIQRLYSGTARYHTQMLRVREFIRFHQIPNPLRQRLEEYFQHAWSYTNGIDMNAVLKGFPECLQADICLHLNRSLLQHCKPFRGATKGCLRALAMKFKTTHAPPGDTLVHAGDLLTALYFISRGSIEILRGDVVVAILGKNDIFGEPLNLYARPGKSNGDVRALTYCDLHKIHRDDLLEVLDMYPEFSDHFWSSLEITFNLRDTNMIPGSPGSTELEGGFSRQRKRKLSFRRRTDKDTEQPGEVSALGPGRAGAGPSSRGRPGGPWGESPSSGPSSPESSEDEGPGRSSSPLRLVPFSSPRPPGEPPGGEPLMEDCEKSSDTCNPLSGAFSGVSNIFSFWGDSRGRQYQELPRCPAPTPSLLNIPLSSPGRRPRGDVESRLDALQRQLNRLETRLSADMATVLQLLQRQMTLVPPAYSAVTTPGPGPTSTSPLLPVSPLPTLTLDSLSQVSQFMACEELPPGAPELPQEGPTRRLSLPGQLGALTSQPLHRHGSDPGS

Question: For O=C(NCCN1CCOCC1)c1ccc(-c2c(O)ccc3ccccc23)cc1, which IC50 [1] is on record?
Answer: 662 nM

Question: What about the remaining at 0.5 h [2] of the same molecule?
Answer: 94%

Question: Which IC50 [3] does the source give for O=C(NC1CCN(CC(F)(F)F)CC1)c1ccc(-c2ccccc2)nc1 here?
Answer: 0.2 nM

Question: Which IC50 [3] does the source give for COc1ccccc1N1CCN(C(=O)c2ccc[nH]2)CC1 here?
Answer: 6900 nM

Question: For Cc1cc2ccccc2c(-c2ccc(C(=O)NCCN3CCOCC3)cc2)n1, which remaining at 0.5 h [2] is on record?
Answer: 76%

Question: With O=C(Nc1ccc(N2CCN(C(=O)N3CCOCC3)CC2)cc1)c1cnc(Oc2ccccc2)nc1 as the molecule, how does the IC50 [3] read?
Answer: 280 nM

Question: With Cc1nc(-c2ccccc2)sc1C(=O)Nc1ccc(S(N)(=O)=O)cc1 as the molecule, how does the IC50 [3] read?
Answer: < 1 nM

Question: Which results are given for O=C(NCCN1CCOCC1)c1ccc(-c2nccc3ccccc23)cc1?
Answer: t1/2 [4]: 1 h; inhibition at 10 µM [5]: 3%; Stability [6]: 90%

Question: With O=C(NCCN1CCOCC1)c1ccc(-c2ccccn2)cc1 as the molecule, how does the IC50 [1] read?
Answer: 274 nM

Question: What about the remaining at 0.5 h [2] of the same molecule?
Answer: 20%
